Laboratory results from patent US6737383B1, “Herbicidal oxadiazolidines” (priority 1999, dated 2004).

What was measured:
[1] = system: wild oat; assay: Test B pre/postemergence wild oat; type: in vivo, Avena fatua
Method in brief: (§1)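 Response is a visual 0-to-10 score relative to untreated plants, where 0 means no effect and 10 means complete control, taken twelve to sixteen days after application. Treatments went onto soil at planting and onto foliage of 1- to 4-leaf plants, using a surfactant-containing non-phytotoxic solvent.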

[2] = system: morningglory; assay: Test B pre/postemergence morningglory; type: in vivo, Ipomoea hederacea
Method in brief: as §1

[3] = system: bermuda-grass; assay: Test D bermudagrass; type: in vivo, Cynodon dactylon; conditions: Preemergence, 0 to 100 scale
Source text: (§2) Seeds, tubers, or plant parts of Alexandergrass (Brachiaria plantaginea), bermuda-grass (Cynodon dactylon), common pursiane (Portulaca oleracea), common ragweed (Ambrosia elatior), common groundsel (Senecio vulgaris), dallisgrass (Paspalum dilatatum), goosegrass (Eleusine indica), guineagrass (Panicum maximum), itchgrass (Rottboellia exaltata), Johnson grass (Sorghum halepense), large crabgrass (Digitaria sanguinalis), pitted morningglory (Ipomoea lacunosa), purple nutsedge (Cyperus rotundus), sandbur (Cenchrus echinatus), sourgrass (Trichachne insularis), Spanishneedles (Bidens bipinnata), surinam grass (Brachiaria decumbens) and tall mallow (Malva sylvestris) were planted into greenhouse pots of flats containing greenhouse planting medium. Plant species were grown in separate pots or individual compartments. Preemergence applications were made within one day of planting the seed or plant part.
(§3) Test chemicals were formulated in a non-phytotoxic solvent mixture which included a surfactant and applied preemergence to the surface of the pot containing seeds in a sandy loam soil. Untreated control pots and treated pots were placed in the greenhouse for growth and visually evaluated for injury 14 to 21 days after herbicide application. Plant response ratings, summarized in Table C, are based on a 0 to 100 scale where 0 is no injury and 100 is complete control. A dash (−) response means no test result.

[4] = system: bedstraw; assay: Test B pre/postemergence bedstraw; type: in vivo, Galium aparine
Method in brief: as §1

[5] = system: velvetleaf; assay: Test B pre/postemergence velvetleaf; type: in vivo, Abutilon theophrasti
Method in brief: as §1

[6] = system: Alexandergrass; assay: Test D Alexandergrass; type: in vivo, Brachiaria plantaginea; conditions: Preemergence, 0 to 100 scale
Source text: as §2, §3

[7] = system: winter barley; assay: Test E winter barley; type: in vivo, Hordeum vulgare; conditions: Preemergence
[8] = system: winter wheat; assay: Test E winter wheat; type: in vivo, Triticum aestivum; conditions: Preemergence
[9] = system: green foxtail; assay: Test E green foxtail; type: in vivo, Setaria viridis; conditions: Preemergence
[10] = system: winter wheat; assay: Test E winter wheat; type: in vivo, Triticum aestivum; conditions: Postemergence, 0 to 100 scale, 0 is no effect, 100 is complete control
Method in brief: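 Plants were grown under normal greenhouse practice; for postemergence, in sandy loam soil mixed 60:40 with potting mix, treated at the 1- to 4-leaf stage. The compound was in a non-phytotoxic solvent carrying a surfactant. After roughly 21 to 28 days plants were scored visually against untreated plants.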

[11] = system: wild oat; assay: Test E wild oat; type: in vivo, Avena fatua; conditions: Preemergence
[12] = system: blackgrass; assay: Test E blackgrass; type: in vivo, Alopecurus myosuroides; conditions: Preemergence
[13] = system: Italian ryegrass; assay: Test E Italian ryegrass; type: in vivo, Lolium multiflorum; conditions: Preemergence
[14] = Postemergence, Rate 62 g/ha, scale 0 to 10, 0 is no effect, 10 is complete control
[15] = Postemergence, Rate 250 g/ha, scale 0 to 10, 0 no effect, 10 complete control
[16] = Preemergence, Rate 62 g/ha, scale 0 to 10 (0 no effect, 10 complete control)
[17] = Preemergence, Rate 125 g/ha, scale 0 to 10 (0 no effect, 10 complete control)
[18] = Preemergence, Rate 250 g/ha, scale of 0 to 10 where 0 is no effect and 10 is complete control
[19] = Preemergence, Rate 500 g/ha, scale 0 (no effect) to 10 (complete control)
[20] = Rate 125 g/ha, Postemergence, scale 0 to 10, 0 no effect, 10 complete control
[21] = Rate 500 g/ha, Postemergence, scale 0 to 10, 0 no effect, 10 complete control
[22] = Rate 16 g/ha, 0 no injury, 100 complete control
[23] = Rate 32 g/ha, 0 no injury, 100 complete control
[24] = Rate 64 g/ha, 0 no injury, 100 complete control
[25] = Rate 125 g/ha, 0 no injury, 100 complete control
[26] = Rate 125 g/ha, 0 to 100 scale (0 no effect, 100 complete control)
[27] = Preemergence, Rate 62 g/ha, scale of 0 to 10 where 0 is no effect and 10 is complete control
[28] = Preemergence, Rate 500 g/ha, scale of 0 to 10 where 0 is no effect and 10 is complete control
[29] = Rate 62 g/ha, Postemergence, scale 0 to 10 (0 no effect, 10 complete control)
[30] = Rate 125 g/ha, Postemergence, scale of 0 to 10 where 0 is no effect and 10 is complete control
[31] = Rate 250 g/ha, Postemergence, scale of 0 to 10 where 0 is no effect and 10 is complete control

CC(C)N(C(=O)n1oc(=O)n(Cc2ccccc2)c1=O)c1ccc(F)cc1 [Compound 78]
Wild oats plant response rating [1, 14]: 0 | Wild oats plant response rating [1, 15]: 0 | Wild oats plant response rating [1, 16]: 0 | Plant response rating, Wild oats [1, 17]: 2 | Plant response rating, Wild oats [1, 18]: 6 | Wild oats plant response rating [1, 19]: 6 | Wild oats plant response rating [1, 20]: 0 | Wild oats plant response rating [1, 21]: 2 | Morningglory plant response rating [2, 14]: 7 | Morningglory plant response rating [2, 15]: 10 | Morningglory plant response rating [2, 16]: 0 | Plant response rating, Morningglory [2, 17]: 0 | Plant response rating, Morningglory [2, 18]: 0 | Morningglory plant response rating [2, 19]: 0 | Morningglory plant response rating [2, 20]: 8 | Morningglory plant response rating [2, 21]: 10 | Plant response rating, Bermudagrass [3, 22]: 75 | Plant response rating, Bermudagrass [3, 23]: 85 | Plant response rating, Bermudagrass [3, 24]: 90 | Plant response rating, Bermudagrass [3, 25]: 98 | Plant response rating, Bermudagrass ([3]; Rate 250 g/ha): 100 | Plant response rating, Bermudagrass ([3]; Rate 500 g/ha): 100 | Bedstraw plant response rating [4, 14]: 0 | Bedstraw plant response rating [4, 15]: 4 | Bedstraw plant response rating [4, 16]: 0 | Plant response rating, Bedstraw [4, 17]: 0 | Plant response rating, Bedstraw [4, 18]: 0 | Bedstraw plant response rating [4, 19]: 0 | Bedstraw plant response rating [4, 20]: 0 | Bedstraw plant response rating [4, 21]: 8 | Velvetleaf plant response rating [5, 14]: 2 | Velvetleaf plant response rating [5, 15]: 3 | Velvetleaf plant response rating [5, 16]: 0 | Plant response rating, Velvetleaf [5, 17]: 0 | Plant response rating, Velvetleaf [5, 18]: 2 | Velvetleaf plant response rating [5, 19]: 7 | Velvetleaf plant response rating [5, 20]: 2 | Velvetleaf plant response rating [5, 21]: 4 | Plant response rating, Alexandergrass [6, 22]: 0 | Plant response rating, Alexandergrass [6, 23]: 0 | Plant response rating, Alexandergrass [6, 24]: 30 | Plant response rating, Alexandergrass [6, 25]: 75 | Plant response rating, Alexandergrass ([6]; Rate 250 g/ha): 75 | Plant response rating, Alexandergrass ([6]; Rate 500 g/ha): 100

CSCCn1c(=O)on(C(=O)N(c2ccc(F)cc2)C(C)C)c1=O [Compound 314]
Plant response rating, Barley (winter) [7, 26]: 50 | Plant response rating, Barley (winter) ([7]; Rate 250 g/ha, 0 to 100 scale, 0 no effect, 100 complete control): 60 | Plant response rating, Wheat (winter) [8, 26]: 65 | Plant response rating, Wheat (winter) ([8]; Rate 250 g/ha, 0 to 100 scale): 70 | Wild oats plant response rating [1, 27]: 0 | Wild oats plant response rating (0 to 10 scale) ([1]; Preemergence, Rate 125 g/ha): 2 | Wild oats plant response rating [1, 18]: 2 | Wild oats plant response rating [1, 28]: 3 | Wild oats plant response rating [1, 29]: 0 | Wild oats plant response rating [1, 30]: 0 | Plant response rating, Wild oats [1, 31]: 2 | Morningglory plant response rating [2, 27]: 0 | Morningglory plant response rating (0 to 10 scale) ([2]; Preemergence, Rate 125 g/ha): 0 | Morningglory plant response rating [2, 18]: 0 | Morningglory plant response rating [2, 28]: 0 | Morningglory plant response rating [2, 29]: 2 | Morningglory plant response rating [2, 30]: 2 | Plant response rating, Morningglory [2, 31]: 3 | Plant response rating, Green foxtail [9, 26]: 60 | Plant response rating, Green foxtail ([9]; Rate 250 g/ha, 0 to 100 scale): 85 | Bedstraw plant response rating [4, 27]: 0 | Bedstraw plant response rating (0 to 10 scale) ([4]; Preemergence, Rate 125 g/ha): 0 | Bedstraw plant response rating [4, 18]: 0 | Bedstraw plant response rating [4, 28]: 3 | Bedstraw plant response rating [4, 29]: 2 | Bedstraw plant response rating [4, 30]: 4 | Velvetleaf plant response rating [5, 27]: 0 | Velvetleaf plant response rating (0 to 10 scale) ([5]; Preemergence, Rate 125 g/ha): 0 | Velvetleaf plant response rating [5, 18]: 3 | Velvetleaf plant response rating [5, 28]: 5 | Velvetleaf plant response rating [5, 29]: 0 | Velvetleaf plant response rating [5, 30]: 0 | Plant response rating, Velvetleaf [5, 31]: 0 | Plant response rating, Wheat (winter) ([10]; Rate 125 g/ha): 65 | Plant response rating, Wheat (winter) ([10]; Rate 250 g/ha): 70 | Plant response rating, Wild oat [11, 26]: 70 | Plant response rating, Wild oat ([11]; Rate 250 g/ha, 0 to 100 scale): 70 | Plant response rating, Blackgrass [12, 26]: 40 | Plant response rating, Blackgrass ([12]; Rate 250 g/ha, 0 to 100 scale): 50 | Plant response rating, I. Ryegrass [13, 26]: 50 | Plant response rating, I. Ryegrass ([13]; Rate 250 g/ha, 0 to 100 scale): 55
